Results taken from patent US8779002B2, “Methods for treating a variety of diseases and conditions, and compounds useful therefor” (Salk Institute for Biological Studies, priority 2007, dated 2014).

Tests used:
HT22 cells = experiment: HT22 oxidative glutamate toxicity (oxytosis) assay; assay type: cell-based, mouse; settings: Oxidative glutamate toxicity (oxytosis); read-out: HT-22 EC50
Procedure: FIG. 1D illustrates the results of an oxidative stress assay. HT22 cells were treated with 5 mM glutamate and different concentrations of two versions of curcumin derivatives. Cell viability was measured 24 hr later by the MTT assay (J. B. Davis and P. Maher, Protein kinase C activation inhibits glutamate-induced cytotoxicity in a neuronal cell line. Brain Res. 652 (1994) 169-173). Legend for FIG. 1A, FIG. 1B and FIG. 1D: x-x, Cmpd CNB-001, o-o, Cmpd J147.
Similar toxicity assays as described above are also conducted with invention compounds using HT22 cells in an assay for oxidative stress. After exposure with 1 mM, 2 mM, 2.5 mM, or 5 mM glutamate, cell viability is determined with the MTT assay.
HT22 hippocampal neurons are treated with 5 mM glutamate and increasing concentrations of invention compounds. Cell viability is measured 24 hr later by the MTT assay (Davis and Maher, Brain Res. 652:169-173 (1994)).

primary cortical neurons = experiment: Trophic factor withdrawal (TFW) assay; assay type: cell-based, rat; settings: Trophic factor withdrawal assay; read-out: TFW EC50
Procedure: FIG. 1A illustrates the results of a trophic factor withdrawal assay. Primary cortical neurons are prepared from 18-day-old rat embryos, and cultured at low cell density 1×10^6/35 mm dish, in serum containing medium, with different compounds Viability is then assayed 2 days later using a fluorescent live-dead assay (Molecular Probes).
Primary cortical neurons can be prepared from 18-day-old embryos of Sprague-Dawley rats as described (Liu & Schubert, J. Neurochem., 1997, 69:2285-2293 and J. Neurochem., 1998, 71:2322-2329). Briefly, the cerebral cortex is dissected out under an anatomical microscope and is freed of meninges and blood vessels. The cortex is cut into small pieces and is then dissociated by trypsin digestion and passed through a pipette tip. Dissociated neurons are suspended in various media and plated on polylysine-coated 35 mm tissue culture dishes (e.g., 1×10^6 cells/dish). Several different culture conditions can be used as known in the art. Invention compounds can be added to cell culture dishes. Cell survival can be measured 1-2 days after compound administration.
A serum-containing medium can be used which includes a minimal essential medium (Sigma) containing 30 mM glucose, 2 mM glutamine, 1 mM pyruvate, penicillin (100 U/ml), streptomycin (100 μg/ml), and 10% fetal calf serum. At a plating density of 1×10^6 cells/dish, most neurons die after one week of culture in this medium. If plated at a density of 2×10^6 cells/dish, then most neurons survive. The cell density-dependent neuronal survival in this system is most likely dependent on the neurotrophic factors secreted by the neurons, not by the glia. The results are the same when glial proliferation is inhibited by cytosine arabinoside.
The structure-activity relationships of compounds according to the present invention can be determined by measuring trophic factor withdrawal in […] primary cortical neurons. As shown in FIG. 1A-FIG. 1D, compounds are added to low density primary cultures of E18 rat cortical neurons at the time of plating, and cell survival is determined two days later by a variety of methods.

MC-65 cells = experiment: MC65 intracellular amyloid toxicity assay; assay type: cell-based; settings: Intracellular amyloid toxicity; read-out: MC65 EC50
Procedure: FIG. 4A illustrates the viability of MC-65 cells upon exposure to the indicated concentrations of compounds, and the degree to which synthesis of the C-terminal fragment of APP is induced by the removal of tetracycline. Cell death was determined 5 days later by the MTT assay and confirmed visually. The data are plotted as percent viable, relative to controls of drug plus un-induced cells.

Wistar rats = experiment: Novel object recognition task in rats; assay type: in vivo, rat
Procedure: FIG. 6 illustrates the effect of galantamine, compounds CNB-001, J147, SK186 and SKI 87 on object recognition task in Wistar rats. The data represent mean±SEM. *p<0.05 compared with the vehicle control.
This model is based on the greater spontaneous exploration of a novel object, compared with a familiar object, shown by rodents (see Ennaceur and Delacour in Behav. Brain Res. 31:47 (1988)). Male Wister rats are assessed for cognitive ability in a test apparatus comprising an open-field arena placed in a sound-attenuated room under dimmed lighting. Images of the open-field are captured by digital camera, and viewed on a monitor in an adjoining room. Each rat is subjected to the procedure separately and care is taken to remove any olfactory/taste cues by cleaning the arena and test objects with alcohol between trials and rats.
Adult male Wistar rats were employed in all rat studies. Animals were placed in the experimental rooms at postnatal day 80 and assigned unique identification numbers (tail marked). Pairs were housed in polycarbonate cages with filter tops and acclimated for 3 days prior to commencing any studies. Animals were maintained in a 12 hour light/dark cycle with room temperature maintained at 22±2° C. with a relative humidity maintained approximately 50%. Food and water were provided ad libitum.
All animals were examined, handled, and weighed for a further two days prior to initiation of the study to assure adequate health and suitability and to minimize non-specific stress associated with manipulation. Each animal was randomly assigned across the treatment groups and balanced by cage numbers. The novel object recognition experiment was performed during the animal's light cycle phase. Drug treatments were balanced across days and animals were only used once
The following compounds were used for this study—Reference compound (Galantamine; 3 mg/kg) was dissolved in 0.9% saline and administered i.p. 1 hour pre-test at a dose volume of 1 ml/kg, and all test compounds were handled in solution, and were kept at −80° C. until use. All compounds were administered orally 60 min prior to training at a volume of 1 ml/kg body weight.
Following a 5-minute habituation period, each rat was placed into the test arena in the presence of two identical objects (plastic shapes). Each rat was placed facing the same direction at the same position in the arena, and the time spent actively exploring the objects during a 5-minute test period (T1) was recorded. The rat was returned to its home cage between tests. After 24 hours, each rat was again placed in the test arena for 5 minutes (T2) in the presence of one of the familiar objects and a novel object, and the time spent exploring both objects was again recorded. The presentation order and position of the objects (left/right) was randomized between rats to prevent bias from order or place preference. A preference index for each object, the ratio of the time spent exploring either the familiar object or the novel object over the total time spent exploring both objects (during retention session T2) was used to measure cognitive function.
Data were analyzed by a one-way analysis of variance (ANOVA) followed by post-hoc comparisons with Fisher Tests when appropriate. An effect was considered significant if p<0.05. Data in the following tables are presented as the mean and standard error to the mean.

Row | EC50 (primary cortical neurons) [nM] | SMILES | EC50 (HT22 cells) [nM] | EC50 (MC-65 cells) [nM] | Recognition index, Mean (Wistar rats; 3 mg/kg i.p. 1 hour pre-test, Wistar rats, n=8) | Fisher's PLSD for Recognition index, Mean Diff. (*vehicle, treatment) (Wistar rats; vehicle versus 3 mg/kg i.p.)
1 | 300 | Cc1ccc(N(N=Cc2ccc(C(=O)O)cc2)C(=O)C(F)(F)F)c(C)c1 [Sk36] | 100 | 300 |  | 
2 | 800 | Cc1ccccc1N(N=Cc1ccccc1)C(=O)C(F)(F)F [HF 43FP] | 50 | 400 |  | 
3 | > 1000 | Cc1ccc(N(N=Cc2ccccc2)C(=O)C(F)(F)F)c(C)c1 [HF 39FP] | 37 | 220 |  | 

Second part, the molecule before the results:

Row | SMILES | EC50 (primary cortical neurons) [nM] | EC50 (HT22 cells) [nM] | EC50 (MC-65 cells) [nM] | Recognition index, Mean (Wistar rats; 3 mg/kg i.p. 1 hour pre-test, Wistar rats, n=8) | Fisher's PLSD for Recognition index, Mean Diff. (*vehicle, treatment) (Wistar rats; vehicle versus 3 mg/kg i.p.)
4 | Cc1ccc(N(N=Cc2ccccc2)C(=O)C(F)(F)F)cc1 [HF 41FP] | > 1000 | 33 | > 1000 |  | 
5 | O=C(N(N=Cc1ccccc1)c1ccccc1)C(F)(F)F [HF 38FP] | 70 | 33 | 80 |  | 
6 | COc1cccc(C=NN(C(C)=O)c2ccc(C)cc2C)c1 [Compound J147A] | > 1000 | 70 | 280 |  | 
7 | COc1cccc(C=NN(C(=O)C(F)(F)F)c2ccccc2C)c1 [HF 43 FO] | > 1000 | 68 | 130 |  | 
8 | COc1ccc(C=NN(C(=O)C(F)(F)F)c2ccc(C)cc2C)cc1 [Sk35] | 35 | 4 | 10 |  | 
9 | COc1cccc(C=NN(C(=O)C(F)(F)F)c2ccccc2)c1 [HF 40FP] | 100 | 75 | 250 |  | 
10 | COc1ccc2c3c1O[C@H]1C[C@@H](O)C=C[C@@]31CCN(C)C2 [Galantamine, reference compound] |  |  |  | 74.037 | −22.114
11 | COc1cccc(C=NN(C(=O)C(F)(F)F)c2ccc(C)cc2)c1 [HF 42FP] | 700 | 80 | 50 |  | 
